PubChem BioAssay (NCI)
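Following 48 hours of exposure in 96-well plates, responses at five concentrations were used to interpolate endpoints linearly. Abbreviation: GI50, concentration required for 50% inhibition of growth. TGI: total growth inhibition.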

How the values were obtained:
Assay in all cases: inhibition of tumour cell growth, NCI panel, 48 h
[1] = system: 786-0 renal
[2] = system: A498 renal
[3] = system: A549 NSCLC
[4] = system: ACHN renal
[5] = system: BT-549 breast
[6] = system: CCRF-CEM leukemia
[7] = system: COLO 205 colon
[8] = system: DU-145 prostate
[9] = system: EKVX NSCLC
[10] = system: HCC-2998 colon
[11] = system: HCT-116 colon
[12] = system: HCT-15 colon
[13] = system: HOP-62 NSCLC
[14] = system: HOP-92 NSCLC
[15] = system: HS 578T breast
[16] = system: HT29 colon
[17] = system: IGROV1 ovarian
[18] = system: K-562 leukemia
[19] = system: KM12 colon
[20] = system: LOX IMVI melanoma
[21] = system: M14 melanoma
[22] = system: MALME-3M melanoma
[23] = system: MDA-MB-231 breast
[24] = system: MDA-MB-435
[25] = system: MOLT-4 leukemia
[26] = system: NCI-H226 lung
[27] = system: NCI-H23 lung
[28] = system: NCI-H460 lung
[29] = system: NCI-H522 lung
[30] = system: NCI/ADR-RES ovarian
[31] = system: OVCAR-3 ovarian
[32] = system: OVCAR-4 ovarian
[33] = system: OVCAR-5 ovarian
[34] = system: PC-3 prostate
[35] = system: RPMI-8226 leukemia
[36] = system: RXF 393 renal
[37] = system: SF-268 CNS
[38] = system: SF-295 CNS
[39] = system: SF-539 CNS
[40] = system: SK-MEL-2 melanoma
[41] = system: SK-MEL-28 melanoma
[42] = system: SK-MEL-5 melanoma
[43] = system: SK-OV-3 ovarian
[44] = system: SN12C renal
[45] = system: SNB-19 CNS
[46] = system: SNB-75 CNS
[47] = system: SR leukemia
[48] = system: SW-620 colon
[49] = system: T-47D breast
[50] = system: TK-10 renal
[51] = system: U251 CNS
[52] = system: UACC-257 melanoma
[53] = system: UACC-62 melanoma
[54] = system: UO-31 renal
[55] = system: CAKI-1 renal
[56] = system: HL-60(TB) leukemia
[57] = system: MCF7 breast
[58] = system: OVCAR-8 ovarian

## Cc1cc2c(cc1C)[n+](Cc1ccc3ccccc3n1)cn2Cc1ccc2ccccc2n1
[1]
  GI50: 1.54 µM
  TGI: 3.03 µM
[2]
  GI50: 1.04 µM
  TGI: 2.36 µM
[3]
  GI50: 2.83 µM
  TGI: 13 µM
[4]
  GI50: 3.06 µM
  TGI: 10.6 µM
[5]
  GI50: 1.32 µM
  TGI: 3.2 µM
[6]
  GI50: 1.83 µM
  TGI: 12.8 µM
[7]
  GI50: 0.387 µM
  TGI: 1.58 µM
[8]
  GI50: 1.6 µM
  TGI: 6.56 µM
[9]
  GI50: 2.29 µM
  TGI: 11.1 µM
[10]
  GI50: 1.27 µM
  TGI: 2.73 µM
[11]
  GI50: 0.407 µM
  TGI: 1.74 µM
[12]
  GI50: 3.04 µM
  TGI: 11.4 µM
[13]
  GI50: 1.27 µM
  TGI: 3.13 µM
[14]
  GI50: 0.484 µM
  TGI: 2 µM
[15]
  GI50: 1.94 µM
  TGI: 5.48 µM
[16]
  GI50: 0.331 µM
  TGI: 1.63 µM
[17]
  GI50: 0.57 µM
  TGI: 2.21 µM
[18]
  GI50: 0.527 µM
  TGI: 3 µM
[19]
  GI50: 0.568 µM
  TGI: 2.06 µM
[20]
  GI50: 0.669 µM
  TGI: 2 µM
[21]
  GI50: 0.586 µM
  TGI: 2.42 µM
[22]
  GI50: 0.783 µM
  TGI: 2.56 µM
[23]
  GI50: 1.09 µM
  TGI: 2.52 µM
[24]
  GI50: 0.571 µM
  TGI: 2.05 µM
[25]
  GI50: 1.46 µM
  TGI: 5.15 µM
[26]
  GI50: 1.59 µM
  TGI: 4.01 µM
[27]
  GI50: 0.736 µM
  TGI: 3.53 µM
[28]
  GI50: 0.63 µM
  TGI: 2.21 µM
[29]
  GI50: 0.704 µM
  TGI: 2.47 µM
[30]
  GI50: 16.7 µM
  TGI: 50.9 µM
[31]
  GI50: 0.628 µM
  TGI: 2.12 µM
[32]
  GI50: 1.24 µM
  TGI: 4.09 µM
[33]
  GI50: 1.3 µM
  TGI: 6.89 µM
[34]
  GI50: 0.948 µM
  TGI: 2.98 µM
[35]
  GI50: 0.301 µM
  TGI: 1.62 µM
[36]
  GI50: 1.17 µM
  TGI: 2.45 µM
[37]
  GI50: 1.27 µM
  TGI: 3.02 µM
[38]
  GI50: 1.12 µM
  TGI: 2.63 µM
[39]
  GI50: 0.899 µM
  TGI: 2.53 µM
[40]
  GI50: 1.57 µM
  TGI: 3.12 µM
[41]
  GI50: 0.992 µM
  TGI: 2.47 µM
[42]
  GI50: 0.471 µM
  TGI: 1.59 µM
[43]
  GI50: 1.69 µM
  TGI: 4.13 µM
[44]
  GI50: 0.792 µM
  TGI: 2.17 µM
[45]
  GI50: 0.91 µM
  TGI: 2.36 µM
[46]
  GI50: 1.43 µM
  TGI: 3.87 µM
[47]
  GI50: 1.12 µM
  TGI: 3.21 µM
[48]
  GI50: 1.07 µM
  TGI: 2.92 µM
[49]
  GI50: 0.393 µM
  TGI: 2.93 µM
[50]
  GI50: 1.38 µM
  TGI: 2.74 µM
[51]
  GI50: 0.926 µM
  TGI: 2.2 µM
[52]
  GI50: 1.23 µM
  TGI: 3.18 µM
[53]
  GI50: 0.612 µM
  TGI: 2.1 µM
[54]
  GI50: 1.33 µM
  TGI: 2.84 µM

## CN(C)CCNc1nc2ccccc2c2occc12
[1]
  GI50: 62 µM
  TGI: > 100 µM
[2]
  GI50: 48.5 µM
  TGI: 81.6 µM
[3]
  GI50: 44.7 µM
  TGI: > 100 µM
[4]
  GI50: 28.2 µM
  TGI: 85.8 µM
[5]
  GI50: > 100 µM
  TGI: > 100 µM
[55]
  GI50: 52.7 µM
  TGI: > 100 µM
[6]
  GI50: 20.9 µM
  TGI: > 100 µM
[7]
  GI50: 25.2 µM
  TGI: > 100 µM
[8]
  GI50: 32 µM
  TGI: > 100 µM
[9]
  GI50: 59.5 µM
  TGI: > 100 µM
[10]
  GI50: 36 µM
  TGI: 89.5 µM
[11]
  GI50: 34.1 µM
  TGI: > 100 µM
[12]
  GI50: 30.1 µM
  TGI: > 100 µM
[56]
  GI50: 49.6 µM
  TGI: > 100 µM
[13]
  GI50: 96.2 µM
  TGI: > 100 µM
[14]
  GI50: 54.1 µM
  TGI: > 100 µM
[15]
  GI50: 99.4 µM
  TGI: > 100 µM
[17]
  GI50: 34.1 µM
  TGI: 89.6 µM
[18]
  GI50: 25.9 µM
  TGI: 98.9 µM
[19]
  GI50: 51.7 µM
  TGI: > 100 µM
[20]
  GI50: 19.1 µM
  TGI: 42.8 µM
[21]
  GI50: 28.8 µM
  TGI: 68.5 µM
[57]
  GI50: 32.4 µM
  TGI: > 100 µM
[23]
  GI50: 23.7 µM
  TGI: 77.6 µM
[24]
  GI50: 54.5 µM
  TGI: > 100 µM
[25]
  GI50: 20.3 µM
  TGI: > 100 µM
[27]
  GI50: 69.5 µM
  TGI: > 100 µM
[28]
  GI50: 31.7 µM
  TGI: > 100 µM
[29]
  GI50: 62.3 µM
  TGI: > 100 µM
[30]
  GI50: 51.8 µM
  TGI: > 100 µM
[31]
  GI50: 97.2 µM
  TGI: > 100 µM
[32]
  GI50: 26.3 µM
  TGI: 82.2 µM
[33]
  GI50: 37.2 µM
  TGI: 88.4 µM
[58]
  GI50: 62.3 µM
  TGI: > 100 µM
[34]
  GI50: 36 µM
  TGI: > 100 µM
[35]
  GI50: 58 µM
  TGI: > 100 µM
[36]
  GI50: 31.6 µM
  TGI: 86.2 µM
[37]
  GI50: 46.6 µM
  TGI: > 100 µM
[38]
  GI50: 60.2 µM
  TGI: > 100 µM
[39]
  GI50: 35.9 µM
  TGI: 83.6 µM
[40]
  GI50: 33.8 µM
  TGI: > 100 µM
[41]
  GI50: 27 µM
  TGI: > 100 µM
[42]
  GI50: 14.5 µM
  TGI: 32.2 µM
[43]
  GI50: 85.1 µM
  TGI: > 100 µM
[44]
  GI50: 27.7 µM
  TGI: 82.5 µM
[45]
  GI50: 71.7 µM
  TGI: > 100 µM
[46]
  GI50: 11.8 µM
  TGI: > 100 µM
[47]
  GI50: 21.3 µM
  TGI: 54.4 µM
[48]
  GI50: 63.4 µM
  TGI: > 100 µM
[49]
  GI50: > 100 µM
  TGI: > 100 µM
[50]
  GI50: 60.5 µM
  TGI: > 100 µM
[51]
  GI50: 45.3 µM
  TGI: > 100 µM
[52]
  GI50: 28.9 µM
  TGI: 68.2 µM
[53]
  GI50: 16.6 µM
  TGI: 34.3 µM
[54]
  GI50: 26.1 µM
  TGI: > 100 µM
